According to PubChem BioAssay (NCI):
Several values for one entry are separate records, joined by “and”; a condition that tells them apart may be missing. Identical values can stand only once.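 Cultured in 96-well plates, cells were exposed to test compound for 48 hours across five concentrations. The concentration for 50% growth inhibition is given as GI50. TGI marks complete inhibition of growth.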

Experiments:
Test in all cases: NCI anticancer screen, dose series, 48 h
[1] = system: CCRF-CEM leukemia
[2] = system: EKVX NSCLC
[3] = system: HCT-116 colon
[4] = system: KM12 colon
[5] = system: RXF 393 renal
[6] = system: SF-268 CNS
[7] = system: SK-MEL-2 melanoma
[8] = system: T-47D breast
[9] = system: KM20L2 colon
[10] = system: M19-MEL melanoma

| Compound | GI50 [1] | TGI [1] [µM] | GI50 [2] [µM] | TGI [2] [µM] | GI50 [3] | TGI [3] [µM] | GI50 [4] | TGI [4] [µM] | GI50 [5] [µM] | TGI [5] [µM] | GI50 [6] [µM] | TGI [6] [µM] | GI50 [7] [µM] | TGI [7] [µM] | GI50 [8] [µM] | TGI [8] [µM] | TGI [9] [µM] | TGI [10] [µM] |
| --- | --- | --- | --- | --- | --- | --- | --- | --- | --- | --- | --- | --- | --- | --- | --- | --- | --- | --- |
| COc1ccc2c(O)c(/C=C3\N=Nc4ccccc43)oc2c1C[C@@H]1CCNC[C@H]1F | 2.33 µM | 6.1 | 12.2 | 25.5 | 1.65 µM | 3.17 | 0.695 µM | 12 | 1.66 | 3.17 | 3.13 | 14.1 | 17 | 32.5 | 18.5 | 40.8 |  |  |
| CCOC(=O)Cc1csc(Nc2ccc(OCC)cc2)n1 |  |  |  | > 100 |  | > 100 |  | > 100 |  | > 100 |  | > 100 |  | > 100 |  |  | > 100 | > 100 |
| Cn1nc(C(F)(F)F)cc1-c1c[nH]c(OCc2ccc(Cl)cc2)c(-c2ccc(Cl)c(C(F)(F)F)c2)c1=O | 0.998 µM | > 50 | 1.39 | > 50 | 0.927 µM | 4.51 | 1.26 µM | 4.86 | 1.13 | 3.4 | 1.08 | > 23.8 | 0.761 | 2.52 | 0.803 | 3.27 |  |  |
| CCNC(=O)Nc1ccc(Oc2ccnc3ccc4c(ccn4C)c23)cc1 | 18.9 µM | > 100 | > 100 | > 100 | 21.2 µM | > 100 | 37.7 µM | > 100 | 17.9 | > 100 | 50.7 | > 100 | 45.8 | > 100 | 23.2 | 62.1 |  |  |
| CCCc1cc(=O)n2c(C(=O)Nc3cccc(C(=O)OCC)c3)c(C(=O)Nc3ccc(F)cc3)sc2n1 | > 140 µM | > 140 | > 140 | > 140 | 1.06 µM | > 140 | 42.5 µM | > 140 | 5.3 | 13.4 | 26.6 | 128 | 6.83 | 27.6 | 13.5 | > 140 |  |  |
| O=c1c2ccccc2nc(/C=C(\O)c2ccncc2)n1-c1ccc(Cl)cc1 |  | > 100 |  | > 100 |  | > 100 |  | > 100 |  |  |  | > 100 |  | > 100 |  |  | > 100 | > 100 |
| N=N/C(=C\c1c(O)[nH]c2ccccc12)c1ccccc1 |  | 25.2 |  | > 92 |  | > 59.3 |  | > 89.2 |  | 62.6 |  | > 100 |  | > 100 |  | > 100 |  |  |
| [Cl][Hg][c]1ccc(Cl)s1 | 0.326 µM | 3.99 | 5.72 | 20.2 | 1.49 µM | 2.97 | 14.3 µM | 28 | 1.56 | 2.95 | 3.48 | 13.3 | 4.65 | 17.6 | 0.908 | 3.37 |  |  |
| COc1ccc(Cn2cc3c(c2-c2ccccc2)CCc2cnoc2-3)cc1OC | 1.78 µM | > 100 | 1.66 | > 100 | 0.482 µM | > 100 | 0.487 µM | > 100 | 1.68 | > 100 | 3.68 | > 100 | 0.735 | > 100 | 0.664 | 71.2 |  |  |
| COc1cc(/C(=C2/O[C@@H]([C@H]3COC(C)(C)O3)[C@H]3OC(C)(C)O[C@@H]23)c2ccc3ccccc3c2)cc(OC)c1OC | 48.3 µM | > 100 | 5.59 | > 100 | 2.51 µM | 5.7 | 6 µM | > 100 | 2.54 | 5.99 | 3.13 | 15.9 | 1.53 | 4.12 | 3.45 | 40.6 |  |  |
| COCCNc1ccc2c3c(cccc13)C(=O)N(CCN(C)C)C2=O | 6.38 µM | > 25 | 6.23 | > 25 | 6.65 µM | > 25 | 8.65 µM | > 25 | 5.07 | 16.9 | 8.95 | > 25 | 8.24 | > 25 | 4.87 | 23.8 |  |  |
| CCCCCCCCCCCCSC1=C(Cl)C(=O)C(OC)=C(OC)C1=O | 1.53 µM | > 100 | 1.61 | > 29.5 | 0.508 µM | 11.9 | 1.85 µM | 11.6 | 4.51 | 23.1 | 3.08 | 16.1 | 4.36 | 14.8 | 0.42 | 2.73 |  |  |
| CCCCCCCCC/C(=N\NC(=O)c1ccncc1)c1ccc(O)c(O)c1O | 0.0426 µM | 3.63 | 0.244 | > 100 | 0.121 µM | 12.8 | 0.348 µM | > 100 | 0.168 | 5.2 | 0.142 | > 23.4 | 0.521 | > 100 | 0.596 | > 93.6 |  |  |
| C#CCN(Cc1nc2cc(C(F)(F)F)ccc2nc1-c1ccccc1)c1ccc(C)cc1 | > 55.7 µM | > 100 | 29.1 | > 62.1 | 0.628 µM | 15.5 | 9.94 µM | > 24.6 | 4.18 | 28 | 17 | > 100 | 6.19 | 34.5 | 2.85 | 31.6 |  |  |
| COC(=O)C1=COC(C)C2CN3CCc4c([nH]c5cc(OC)c(OC)cc45)C3CC12 (stereo unspecified) | 41.7 µM and 13.6 µM | > 100 |  | > 100 | > 100 µM and 43.6 µM | > 100 | > 100 µM and 37.2 µM | > 100 |  | 85.8 |  | > 100 |  | > 100 |  | > 100 |  |  |
